{
  "source": "patent US11555006B2",
  "about": "“Elucidation of novel 13-series resolvins that increase with atorvastatin and clear infections” (The Brigham and Women's Hospital, Inc., priority 2015, dated 2023)",
  "key": {"human recombinant COX-2 [1]": {"target": "T1, human recombinant COX-2 (Homo sapiens, UniProt P35354)", "T1 construct": "purchased Cayman Chemicals", "T1 sequence (P35354 18-604)": "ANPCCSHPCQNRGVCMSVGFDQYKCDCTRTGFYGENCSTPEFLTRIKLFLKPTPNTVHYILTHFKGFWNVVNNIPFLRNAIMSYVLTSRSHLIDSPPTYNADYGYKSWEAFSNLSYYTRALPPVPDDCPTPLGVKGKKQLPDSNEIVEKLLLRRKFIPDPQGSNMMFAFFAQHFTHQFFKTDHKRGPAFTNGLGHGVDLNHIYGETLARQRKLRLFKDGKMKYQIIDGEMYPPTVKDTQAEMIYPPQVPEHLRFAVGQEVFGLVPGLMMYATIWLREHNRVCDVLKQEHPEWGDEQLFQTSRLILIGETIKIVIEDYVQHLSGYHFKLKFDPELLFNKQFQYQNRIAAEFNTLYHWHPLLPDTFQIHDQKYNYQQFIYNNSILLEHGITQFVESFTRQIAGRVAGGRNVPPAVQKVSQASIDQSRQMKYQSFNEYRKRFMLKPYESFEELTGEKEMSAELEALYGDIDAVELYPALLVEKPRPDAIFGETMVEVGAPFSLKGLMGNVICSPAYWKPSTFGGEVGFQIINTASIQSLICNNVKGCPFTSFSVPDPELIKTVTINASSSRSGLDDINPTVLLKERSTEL", "assay": "n-3 DPA conversion by S-nitrosylated hrCOX-2", "type": "biochemical", "details": "hrCOX-2 incubated with S-nitrosoglutathione", "procedure": "In designated experiments, n-3 DPA was incubated with hrCOX2, hrCOX-2 that was previously incubated with S-nitrosoglutathione (30 min RT), prepared by incubating 100 mM glutathione with 100 mM sodium nitrite in 200 mM hydrochloric acid at RT as in ^34 or S-nitrosoglutathione. After 20 min the incubations were quenched with methanol and 13-HDPA levels were assessed using LC-MS-MS-based LM metabololipidomics."}, "[2]": {"test_system": "human neutrophil-endothelial cell co-incubations", "assay": "Lipid mediator levels in human endothelial cell incubations and neutrophil-endothelial cell co-incubations", "type": "cell-based", "details": "neutrophil-endothelial cells, 1 μM precursor", "procedure": "Prior to sample extraction, deuterated internal standards (d4-PGE2, d5-LXA4, d4-RvD2, d4-LTB4 and d8-5S-HETE) representing regions of interest in the chromatographic analysis (500 pg each) were added to facilitate quantification. Extracted samples were analyzed by a LC-MS-MS system, Qtrap 6500 (AB Sciex) equipped with a Shimadzu SIL-20AC autoinjector and LC-20AD binary pump (Shimadzu Corp.). An Agilent Eclipse Plus C18 column (100×4.6 mm×1.8 μm) was used with a gradient of methanol/water/acetic acid of 55:45:0.01 (vol:vol:vol) that was ramped to 85:15:0.01 (vol:vol:vol) over 10 min and then to 98:2:0.01 (vol:vol:vol) for the next 8 min. This was subsequently maintained at 98:2:0.01 (vol:vol:vol) for 2 min. The flow rate was maintained at 0.4 ml/min. To monitor and quantify the levels of lipid mediators, a multiple reaction monitoring (MRM) method was developed with signature ion fragments (m/z) for each molecule monitoring the parent ion (Q1) and a characteristic daughter ion (Q3). […] Calibration curves were determined using a mixture of lipid mediators obtained via total organic synthesis, where these lipid mediators were not available (RvT1, RvT2, RvT3, RvT4 and 13-HDPA); known mediators with similar chromatographic properties (RvD2 for RvT1, RvD1 for RvT2 and RvT3; RvD5 for RvT4; 13-HDHA for 13-HDPA) were used. […]"}, "human recombinant COX-2 [3]": {"target": "T1, human recombinant COX-2", "assay": "Recombinant enzyme incubations, Michaelis Menten kinetics", "type": "biochemical", "details": "n-3 DPA converted to 13R-HDPA by human recombinant COX-2", "protocol": "Human recombinant COX-2 (10 units; Cayman Chemicals; in 0.1 M Tris-HCl, pH 8.0, 20 μM porcine hematin, 0.67 mM phenol as in ^33) was incubated with the indicated concentrations of AA or n-3 DPA (1 h, RT) and absorbance at 235 nm was investigated at 1 min intervals using a Cary UV-Vis Spectrophotometer (Agilent)."}},
  "data": [
    {"compound": "N[C@@H](CCC(=O)N[C@@H](CSN=O)C(=O)NCC(=O)O)C(=O)O", "note": "[S-nitrosoglutathione]", "values": [
      {"measurement": "13R-HDPA and hrCOX-2 catalytic activity compared to native COX-2", "setting": "human recombinant COX-2 [1]", "result": "increased"}
    ]},
    {"compound": "CC/C=C\\C/C=C\\C/C=C\\C/C=C\\C/C=C\\CCCCCC(=O)O", "note": "[n-3 DPA, n-3 docosapentaenoic acid]", "values": [
      {"measurement": "increase in RvT amounts on co-incubation with precursor", "setting": "[2]", "result": "30-50%"},
      {"measurement": "Km", "setting": "human recombinant COX-2 [3]", "result": "3.1 ± 1.3", "unit": "µM"}
    ]}
  ]
}
